Laboratory results published in patent US20240358692A1, “TREATMENT OF SCLERODERMA” (Aisa Pharma, Inc., priority 2023, published 2024).

What was measured:
participants with SSc-RP [1] = type: in vivo; settings: tadalafil monotherapy group
Source text: Treatment-emergent AEs (TEAEs) are defined as AEs that occur or worsen after the dose of study drug. If the timing of the start of an AE could not be determined unambiguously from the start or end dates provided, it will be assumed to be a TEAE. An AE is considered related if the relationship to either of the study drug has been indicated as possibly or probably or definite related by the investigator. An AE leading to study withdrawal is defined as an AE that cause a subject early terminated from the study. AEs will be identified as emerging in the following parts: • TEAEs for Part A will be those that started during Part A (i.e., from the first dose in Part A to end of follow up of Part A) • TEAEs for Part B will be those that started during Part B (i.e., from the first dose in Part B to end of follow-up of Part B).
In this study, AEs and SAEs were reported for all participants from the time of randomization until the completion of the Follow-up/EOS visit. Adverse events that were ongoing at the EOS visit were marked as Not Recovered/Not resolved on the AE eCRF page (see Section 9.4.4). The Investigator did full AE review during in-clinic visit. All spontaneously volunteered and enquired for, as well as observed AEs, were recorded in the participant's medical records and the eCRF.
Severity of AEs were graded by the Investigator as one of: • Mild (Grade 1): A type of AE that is usually transient and may require only minimal treatment or therapeutic intervention.

participants with SSc-RP [2] = test: SHAQ - Visual Analog Scale - Intestinal Problems; type: in vivo, human; set-up: Visual Analog Scale-Intestinal Problems, In Clinic Visit (Day 12), Mean / Visual Analog Scale-Intestinal Problems, In Clinic Visit (Day 12), Median / Visual Analog Scale-Intestinal Problems, Change from Baseline, Mean / Visual Analog Scale-Intestinal Problems, Change from Baseline, Median / SHAQ Visual Analogue Scale - Intestinal Problems, In-Clinic Visit (Day 12), Median: scale not given here
Source text: The standard, validated, patient reported outcome measures tool for SSc patients, the Scleroderma Health Assessment Questionnaire (SHAQ), will be used to assess the participant qualify of life. Details are attached in the Appendix. The participant quality of life will be scored, and a disability index calculated for each questionnaire completed by the patient at Screening and each in-clinic visit. The absolute change in participant quality of life from baseline to the end of each dosing period will be calculated similar to frequency data as before.
The standard, validated, patient reported outcome measures tool for SSc patients, the SHAQ, was collected at the time points specified in the study schedules (FIG. 2 and FIGS. 4A and 4B) to assess the participant's quality of life. The SHAQ included a Raynaud's VAS that will also be reported separately.

[3] = Modified ITT Population-Part A, Day 12, dose cilnidipine 10 mg, tadalafil 5 mg, alone or combined as labelled
[4] = Tadalafil 5 mg, SSc patients, PP, Part A

## CN1CC(=O)N2[C@H](c3ccc4c(c3)OCO4)c3[nH]c4ccccc4c3C[C@@H]2C1=O [Tadalafil]
Participants with SSc-RP [1]
  Worst AE (group): Worst AE in tadalafil
Participants with SSc-RP [2]; [3]
  Visual Analog Scale-Intestinal Problems, Change from Baseline, Median: 0.000
  Visual Analog Scale-Intestinal Problems, Percent Change from Baseline, Median: 0.00%
Participants with SSc-RP [2]; [4]
  SHAQ VAS Intestinal Problems, Change from Baseline, Max: 1.80
  SHAQ VAS Intestinal Problems, Change from Baseline, Median: 0.000
  SHAQ VAS Intestinal Problems, Change from Baseline, Min: −2.30,
  SHAQ VAS Intestinal Problems, Change from Baseline, Q1: −1.150,
  SHAQ VAS Intestinal Problems, Change from Baseline, Q3: 0.900
  SHAQ VAS Intestinal Problems, Day 12, Max: 9.20
  SHAQ VAS Intestinal Problems, Day 12, Mean: 3.025
  SHAQ VAS Intestinal Problems, Day 12, Median: 1.450
  SHAQ VAS Intestinal Problems, Day 12, Min: 0.00,
  SHAQ VAS Intestinal Problems, Day 12, Q1: 0.050,
  SHAQ VAS Intestinal Problems, Day 12, Q3: 6.000
  SHAQ VAS Intestinal Problems, Percent Change from Baseline, Max: 24.3
  SHAQ VAS Intestinal Problems, Percent Change from Baseline, Mean: −6.92
  SHAQ VAS Intestinal Problems, Percent Change from Baseline, Median: 0.00
  SHAQ VAS Intestinal Problems, Percent Change from Baseline, Min: −45.1,
  SHAQ VAS Intestinal Problems, Percent Change from Baseline, Q1: −45.10,
  SHAQ VAS Intestinal Problems, Percent Change from Baseline, Q3: 24.32
